In US8927559B2, “Quinazolinone-type compounds as CRTH2 antagonists” (Merck Sharp & Dohme Corp., priority 2010, dated 2015):
Several values for one entry are separate records, joined by “and”; a condition that tells them apart may be missing. Equal values may be shown once.

Molecular target: T1, CRTH2 receptor (hCRTH2) (Homo sapiens, UniProt Q9Y5Y4)
T1 construct: expressed in transfected cells; host or cells: HEK cells (HEK-hCRTH2 cell line), membranes
T1 sequence (Q9Y5Y4 1-395): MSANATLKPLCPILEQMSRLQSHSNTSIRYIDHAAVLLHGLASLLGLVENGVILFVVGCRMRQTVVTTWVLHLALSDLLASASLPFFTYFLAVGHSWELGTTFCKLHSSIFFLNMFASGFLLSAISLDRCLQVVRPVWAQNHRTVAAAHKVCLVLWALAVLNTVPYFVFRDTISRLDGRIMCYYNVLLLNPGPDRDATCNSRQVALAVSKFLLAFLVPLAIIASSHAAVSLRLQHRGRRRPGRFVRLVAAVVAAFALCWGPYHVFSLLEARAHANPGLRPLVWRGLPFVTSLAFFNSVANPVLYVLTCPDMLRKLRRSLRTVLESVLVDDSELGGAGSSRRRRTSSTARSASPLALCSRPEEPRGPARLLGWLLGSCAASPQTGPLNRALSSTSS
Assay: Radioligand binding assay ([3H]PGD2 competition, membranes of HEK-hCRTH2 cell line)
Details: 3.0 nM [3H]PGD2, HEK-hCRTH2 membranes, 60 min, room temperature; read-out: Ki
Method: Competing ligands were diluted in dimethylsulfoxide (Me2SO) that was kept constant at 1% (v/v) of the final incubation volume. The reaction was initiated by the addition of 8-20 μg of membrane protein prepared from a HEK-hCRTH2 cell line. Total and non-specific binding were determined in the absence and the presence of […] PGD2, respectively. […] The reaction was routinely conducted for 60 min at room temperature and terminated by rapid filtration through prewetted (0.3% polyethyleneimine) 96-well printed filtermate (Wallac) using a Tomtec harvester. After washing with cold buffer, the filter was dried for 2 minutes in microwave, and Meltilex Scintillator sheet (Wallac) was melted on for 2 min.

Ki	Structure (SMILES)
10 to 50 nM	O=C(O)CCCCc1nc2cc(-c3c[nH]nn3)ccc2c(=O)n1-c1ccc(F)cc1 [Example 18, 5-[3-(4-fluorophenyl)-4-oxo-7-(1H-1,2,3-triazol-4-yl)-3,4-dihydroquinazolin-2-yl]pentanoic acid]
≤ 10 nM	O=C(O)CCCCc1nc2cc(-c3cn(Cc4ccc(F)cc4)nn3)ccc2c(=O)n1-c1ccc(F)cc1 [Example 19, 5-{7-[1-(4-fluorobenzyl)-1H-1,2,3-triazol-4-yl]-3-(4-fluorophenyl)-4-oxo-3,4-dihydroquinazolin-2-yl}pentanoic acid]
≤ 10 nM and 1.2 nM	CS(=O)(=O)c1ccc(Cn2cc(-c3ccc4c(=O)n(-c5ccc(F)cc5)c(CCCCC(=O)O)nc4c3)nn2)cc1 [Example 19D]
≤ 10 nM	O=C(O)CCCCc1nc2cc(-c3cn(-c4cccnc4)nn3)ccc2c(=O)n1-c1ccc(F)cc1 [Example 20, 5-{3-(4-fluorophenyl)-4-oxo-7-[1-(pyridin-3-yl)-1H-1,2,3-triazol-4-yl]-3,4-dihydroquinazolin-2-yl}pentanoic acid]
≤ 10 nM	O=C(O)CCCCc1nc2cc(-n3cc(C4CC4)nn3)ccc2c(=O)n1-c1ccc(F)cc1 [Example 21, 5-[7-(4-cyclopropyl-1H-1,2,3-triazol-1-yl)-3-(4-fluorophenyl)-4-oxo-3,4-dihydroquinazolin-2-yl]pentanoic acid]
10 to 50 nM	CC(C)(O)c1cn(-c2ccc3c(=O)n(-c4ccc(F)cc4)c(CCCCC(=O)O)nc3c2)nn1 [Example 21C]
≤ 10 nM	O=C(O)CCCCc1nc2cc(-n3cc(-c4ccccc4)nn3)ccc2c(=O)n1-c1ccc(F)cc1 [Example 21D]
≤ 10 nM	O=C(O)CCCCc1nc2cc(-n3cc(Cc4ccccc4)nn3)ccc2c(=O)n1-c1ccc(F)cc1 [Example 21E]
10 to 50 nM	O=C(O)CCCCc1nc2cc(-c3nc(Cc4ccc(F)cc4)no3)ccc2c(=O)n1-c1ccc(F)cc1 [Example 22C]
≤ 10 nM	COc1ccccc1S(=O)(=O)NCc1cc(-c2ccc3c(=O)n(-c4ccc(F)cc4)c(CCCCC(=O)O)nc3c2)no1 [Example 24, 5-(3-(4-fluorophenyl)-7-(5-((2-methoxyphenylsulfonamido)methyl)isoxazol-3-yl)-4-oxo-3,4-dihydroquinazolin-2-yl)pentanoic acid]
≤ 10 nM	O=C(O)CCCCc1nc2cc(-c3cc(CNC(=O)c4ccccc4)on3)ccc2c(=O)n1-c1ccc(F)cc1 [Example 24F]
≤ 10 nM	Cc1ccc(S(=O)(=O)NCc2cc(-c3ccc4c(=O)n(-c5ccc(F)cc5)c(CCCCC(=O)O)nc4c3)no2)cc1 [Example 24G]
≤ 10 nM	O=C(O)CCCCc1nc2cc(-c3cc(CNS(=O)(=O)c4ccc(F)cc4)on3)ccc2c(=O)n1-c1ccc(F)cc1 [Example 24H]
≤ 10 nM	O=C(O)CCCCc1nc2cc(-c3cc(CNS(=O)(=O)Cc4ccccc4)on3)ccc2c(=O)n1-c1ccc(F)cc1 [Example 24J]
10 to 50 nM	CC(C)(C)c1ccc(S(=O)(=O)NCc2cc(-c3ccc4c(=O)n(-c5ccc(F)cc5)c(CCCCC(=O)O)nc4c3)no2)cc1 [Example 24L]
10 to 50 nM and 40.5 nM	O=C(O)CCCCc1nc2cc(-c3cc(CNS(=O)(=O)c4ccc(-c5ccccc5)cc4)on3)ccc2c(=O)n1-c1ccc(F)cc1 [Example 24M]
≤ 10 nM	O=C(O)CCCCc1nc2cc(-c3cc(CNS(=O)(=O)c4cc(F)cc(F)c4)on3)ccc2c(=O)n1-c1ccc(F)cc1 [Example 24N]
≤ 10 nM	O=C(O)CCCCc1nc2cc(-c3cc(CNS(=O)(=O)c4ccc(F)c(F)c4)on3)ccc2c(=O)n1-c1ccc(F)cc1 [Example 24P]
≤ 10 nM	CC(C)(C)OC(=O)NCc1cc(-c2ccc3c(=O)n(-c4ccc(F)cc4)c(CCCCC(=O)O)nc3c2)no1 [Example 24Q]
10 to 50 nM	O=C(O)CCCCc1nc2cc(-c3cc(CNC(=O)c4ccc(F)cc4)on3)ccc2c(=O)n1-c1ccc(F)cc1 [Example 24R]
≤ 10 nM	O=C(O)CCCCc1nc2cc(-c3cc(CNS(=O)(=O)c4ccc(OC(F)(F)F)cc4)on3)ccc2c(=O)n1-c1ccc(F)cc1 [Example 24i]
≤ 10 nM	O=C(O)CCCCc1nc2cc(-c3cc(CNS(=O)(=O)c4ccc(Cl)cc4)on3)ccc2c(=O)n1-c1ccc(F)cc1 [Example 24o]
≤ 10 nM and 1 nM	O=C(O)CCCCc1nc2cc(-c3cc(Cc4ccc(F)cc4)on3)ccc2c(=O)n1-c1ccc(F)cc1 [Example 25, 5-(7-(5-(4-fluorobenzyl)isoxazol-3-yl)-3-(4-fluorophenyl)-4-oxo-3,4-dihydroquinazolin-2-yl)pentanoic acid]
≤ 10 nM	O=C(O)CCCCc1nc2cc(-c3cc([C@H](O)c4ccc(F)cc4)on3)ccc2c(=O)n1-c1ccc(F)cc1 [Example 25C]
≤ 10 nM	O=C(O)CCCCc1nc2cc(-c3cc([C@@H](O)c4ccc(F)cc4)on3)ccc2c(=O)n1-c1ccccc1 [Example 25D]

Ki	Structure (SMILES)
≤ 10 nM	O=C(O)CCCCc1nc2cc(-c3cc([C@H](O)c4ccc(F)cc4)on3)ccc2c(=O)n1-c1ccccc1 [Example 25E]
≤ 10 nM	O=C(O)CCCCc1nc2cc(-c3cc(Cc4ccc(F)cc4)on3)ccc2c(=O)n1-c1ccccc1 [Example 25F]
≤ 10 nM	O=C(O)CCCCc1nc2cc(-c3cc(C(O)c4ccc5ccccc5n4)on3)ccc2c(=O)n1-c1ccc(F)cc1 (stereo not shown) [Example 25G]
10 to 50 nM	O=C(O)CCCCc1nc2cc(-c3cc(C(O)c4ccc5ccccc5n4)on3)ccc2c(=O)n1-c1ccc(F)cc1 (stereo not shown) [Example 25H]
≤ 10 nM	O=C(O)CCCCc1nc2cc(-c3cc(Cc4ccc5ccccc5c4)on3)ccc2c(=O)n1-c1ccc(F)cc1 [Example 25J]
≤ 10 nM	O=C(O)CCCCc1nc2cc(-c3cc(Cc4cnc5ccccc5n4)on3)ccc2c(=O)n1-c1ccc(F)cc1 [Example 25L]
≤ 10 nM	O=C(O)CCCCc1nc2cc(-c3cc(C(O)c4ccc5ccccc5c4)on3)ccc2c(=O)n1-c1ccc(F)cc1 (stereo not shown) [Example 25i]
≤ 10 nM and 7.4 nM	C[C@@]1(Cc2ccccc2)CC(c2ccc3c(=O)n(-c4ccc(F)cc4)c(CCCCC(=O)O)nc3c2)=NO1 [Example 26, (R)-5-(7-(5-benzyl-5-methyl-4,5-dihydroisoxazol-3-yl)-3-(4-fluorophenyl)-4-oxo-3,4-dihydroquinazolin-2-yl)pentanoic acid]
10 to 50 nM	C[C@@]1([C@@H](O)c2ccccc2)CC(c2ccc3c(=O)n(-c4ccc(F)cc4)c(CCCCC(=O)O)nc3c2)=NO1 [Example 26C]
10 to 50 nM	C[C@]1([C@@H](O)c2ccccc2)CC(c2ccc3c(=O)n(-c4ccc(F)cc4)c(CCCCC(=O)O)nc3c2)=NO1 [Example 26D]
≤ 10 nM	C[C@]1(Cc2ccccc2)CC(c2ccc3c(=O)n(-c4ccc(F)cc4)c(CCCCC(=O)O)nc3c2)=NO1 [Example 26E]
≤ 10 nM	C[C@@]1([C@H](O)c2ccccc2)CC(c2ccc3c(=O)n(-c4ccc(F)cc4)c(CCCCC(=O)O)nc3c2)=NO1 [Example 26F]
10 to 50 nM	C[C@]1([C@H](O)c2ccccc2)CC(c2ccc3c(=O)n(-c4ccc(F)cc4)c(CCCCC(=O)O)nc3c2)=NO1 [Example 26G]
≤ 10 nM	C[C@@]1([C@H](O)c2ccccc2)CC(c2ccc3c(=O)n(-c4ccccc4)c(CCCCC(=O)O)nc3c2)=NO1 [Example 26J]
10 to 50 nM	C[C@]1([C@H](O)c2ccccc2)CC(c2ccc3c(=O)n(-c4ccccc4)c(CCCCC(=O)O)nc3c2)=NO1 [Example 26K]
10 to 50 nM	C[C@]1(Cc2ccccc2)CC(c2ccc3c(=O)n(-c4ccccc4)c(CCCCC(=O)O)nc3c2)=NO1 [Example 26L]
≤ 10 nM	C[C@@]1(Cc2ccccc2)CC(c2ccc3c(=O)n(-c4ccccc4)c(CCCCC(=O)O)nc3c2)=NO1 [Example 26M]
10 to 50 nM	C[C@@]1([C@@H](O)c2ccccc2)CC(c2ccc3c(=O)n(-c4ccccc4)c(CCCCC(=O)O)nc3c2)=NO1 [Example 26i]
≤ 10 nM	O=C(O)CCCCc1nc2cc(C3=NOC(c4nc5ccccc5o4)C3)ccc2c(=O)n1-c1ccc(F)cc1 (stereo not shown) [Example 28, 5-(7-(5-(benzo[d]oxazol-2-yl)-4,5-dihydroisoxazol-3-yl)-3-(4-fluorophenyl)-4-oxo-3,4-dihydroquinazolin-2-yl)pentanoic acid]
≤ 10 nM	O=C(O)CCCCc1nc2cc(-c3cc(-c4nc5ccccc5o4)on3)ccc2c(=O)n1-c1ccc(F)cc1 [Example 29]
10 to 50 nM and 22.1 nM	O=C(O)CCCCc1nc2cc(-c3cc(-c4ccccc4)no3)ccc2c(=O)n1-c1ccc(F)cc1 [Example 32]
≤ 10 nM	O=C(O)CCCCc1nc2cc(-c3cc(-c4ccc5ccccc5n4)on3)ccc2c(=O)n1-c1ccc(F)cc1 [Example 33]
≤ 10 nM	O=C(O)CCCCc1nc2cc(-c3noc(Cc4ccc(F)cc4)n3)ccc2c(=O)n1-c1ccc(F)cc1 [Example 36, 5-(7-(5-(4-fluorobenzyl)-1,2,4-oxadiazol-3-yl)-3-(4-fluorophenyl)-4-oxo-3,4-dihydroquinazolin-2-yl)pentanoic acid]
≤ 10 nM	O=C(O)CCCCc1nc2cc(C3=NOC[C@@H](c4ccc(F)cc4)N3)ccc2c(=O)n1-c1ccc(F)cc1 [Example 37, (R)-5-(3-(4-fluorophenyl)-7-(5-(4-fluorophenyl)-5,6-dihydro-4H-1,2,4-oxadiazin-3-yl)-4-oxo-3,4-dihydroquinazolin-2-yl)pentanoic acid]
